In this series the test system is CCRIS mutagenicity, Ames/micronucleus/aberration tests. The series can be described thus: CCRIS mutagenicity studies.
Setting [1] is: Test System: AMES SALMONELLA TYPHIMURIUM, Strain/Indicator: TA98, Metabolic Activation: NONE, Method: STANDARD PLATE.
[2] abbreviates: Test System: AMES SALMONELLA TYPHIMURIUM, Strain/Indicator: TA100, Metabolic Activation: NONE, Method: STANDARD PLATE.

Activity calls are given as the source filed them. How the calls were made is not given here.

`CC(O)CN(CC(C)O)CC(C)O` (stereo not given) (tested in a mixture with another compound): the mutagenic call is, setting by setting: (Test System: AMES SALMONELLA TYPHIMURIUM, Strain/Indicator: TA98, Metabolic Activation: NONE, Method: PREINCUBATION) “inactive; negative”; (Test System: AMES SALMONELLA TYPHIMURIUM, Strain/Indicator: TA98, Metabolic Activation: RAT LIVER S-9, AROCLOR 1254, 10%, Method: PREINCUBATION) “inactive; negative”; (Test System: AMES SALMONELLA TYPHIMURIUM, Strain/Indicator: TA100, Metabolic Activation: NONE, Method: PREINCUBATION) “inactive; negative”; (Test System: AMES SALMONELLA TYPHIMURIUM, Strain/Indicator: TA100, Metabolic Activation: RAT LIVER S-9, AROCLOR 1254, 10%, Method: PREINCUBATION) “inactive; negative”; (Test System: AMES SALMONELLA TYPHIMURIUM, Strain/Indicator: TA1535, Metabolic Activation: NONE, Method: PREINCUBATION) “inactive; negative”; (Test System: AMES SALMONELLA TYPHIMURIUM, Strain/Indicator: TA1535, Metabolic Activation: RAT LIVER S-9, AROCLOR 1254, 10%, Method: PREINCUBATION) “inactive; negative”. Also, the mutagenic call is “inactive; negative” (Test System: AMES SALMONELLA TYPHIMURIUM, Strain/Indicator: TA1537, Metabolic Activation: NONE, Method: PREINCUBATION); “inactive; negative” (Test System: AMES SALMONELLA TYPHIMURIUM, Strain/Indicator: TA1537, Metabolic Activation: RAT LIVER S-9, AROCLOR 1254, 10%, Method: PREINCUBATION); “inactive; negative” (Test System: UDS RAT HEPATOCYTES, Strain/Indicator: THYMIDINE INCORPORATION, Metabolic Activation: NONE, Method: AUTORADIOGRAPHY).

As for `O=C(O)CC(O)C(=O)O` (stereo not given), the mutagenic call is “inactive; negative” (Test System: AMES SALMONELLA TYPHIMURIUM, Strain/Indicator: TA97, Metabolic Activation: NONE, Method: PREINCUBATION); “inactive; negative” (Test System: AMES SALMONELLA TYPHIMURIUM, Strain/Indicator: TA97, Metabolic Activation: NONE, Method: STANDARD PLATE); “inactive; negative” (Test System: AMES SALMONELLA TYPHIMURIUM, Strain/Indicator: TA97, Metabolic Activation: RAT, LIVER, S-9, AROCLOR 1254, Method: PREINCUBATION); “inactive; negative” (Test System: AMES SALMONELLA TYPHIMURIUM, Strain/Indicator: TA97, Metabolic Activation: RAT, LIVER, S-9, PHENOBARBITAL, Method: STANDARD PLATE); “inactive; negative” under setting [1]; “inactive; negative” (Test System: AMES SALMONELLA TYPHIMURIUM, Strain/Indicator: TA98, Metabolic Activation: RAT, LIVER, S-9, PHENOBARBITAL, Method: STANDARD PLATE). The mutagenic call was “inactive; negative” under setting [2]; “inactive; negative” (Test System: AMES SALMONELLA TYPHIMURIUM, Strain/Indicator: TA100, Metabolic Activation: RAT, LIVER, S-9, PHENOBARBITAL, Method: STANDARD PLATE); “inactive; negative” (Test System: AMES SALMONELLA TYPHIMURIUM, Strain/Indicator: TA102, Metabolic Activation: NONE, Method: PREINCUBATION); “inactive; negative” (Test System: AMES SALMONELLA TYPHIMURIUM, Strain/Indicator: TA102, Metabolic Activation: RAT, LIVER, S-9, AROCLOR 1254, Method: PREINCUBATION); “inactive; negative” (Test System: AMES SALMONELLA TYPHIMURIUM, Strain/Indicator: TA104, Metabolic Activation: NONE, Method: STANDARD PLATE); “inactive; negative” (Test System: AMES SALMONELLA TYPHIMURIUM, Strain/Indicator: TA104, Metabolic Activation: RAT, LIVER, S-9, PHENOBARBITAL, Method: STANDARD PLATE).

Take `Cc1cccc(CN(C)N=O)c1`: the mutagenic call by setting is: (Test System: AMES SALMONELLA TYPHIMURIUM, Strain/Indicator: TA1535, Metabolic Activation: HAMSTER, LIVER, S-9, AROCLOR 1254, Method: STANDARD PLATE) “active; positive”; (Test System: AMES SALMONELLA TYPHIMURIUM, Strain/Indicator: TA1535, Metabolic Activation: NONE, Method: STANDARD PLATE) “inactive; negative”.

For `C[N+](C)=c1ccc2nc3ccc(N)cc3sc-2c1`, the mutagenic call was “active; positive” (Test System: Ames Salmonella typhimurium, Strain/Indicator: TA98, Metabolic Activation: Rat, Liver, S-9, Aroclor 1254 (10%), Method: Preincubation); “active; positive” (Test System: Ames Salmonella typhimurium, Strain/Indicator: TA98, Strain/Sex: TA98, Metabolic Activation: None, Method: Preincubation); “active; positive” (Test System: Ames Salmonella typhimurium, Strain/Indicator: TA100, Metabolic Activation: None, Method: Preincubation); “active; positive” (Test System: Ames Salmonella typhimurium, Strain/Indicator: TA100, Metabolic Activation: Rat, Liver, S-9, Aroclor 1254 (10%), Method: Preincubation); “active; positive” (Test System: E. coli, Strain/Indicator: WPM uvrA/pKM101, Metabolic Activation: None, Method: Preincubation); “active; positive” (Test System: E. coli, Strain/Indicator: WPM uvrA/pKM101, Metabolic Activation: Rat, Liver, S-9, Aroclor 1254 (10%), Method: Preincubation).

For `C=CCOc1ccccc1OCC(O)CNC(C)C` (stereo not given), the mutagenic call is, setting by setting: (Test System: AMES SALMONELLA TYPHIMURIUM, Strain/Indicator: TA98, Metabolic Activation: NONE) “inactive; negative”; under setting [1], “inactive; negative”; (Test System: AMES SALMONELLA TYPHIMURIUM, Strain/Indicator: TA98, Metabolic Activation: RAT, LIVER, S-9, AROCLOR 1254) “inactive; negative”; (Test System: AMES SALMONELLA TYPHIMURIUM, Strain/Indicator: TA98, Metabolic Activation: RAT, LIVER, S-9, AROCLOR 1254, Method: STANDARD PLATE) “inactive; negative”; (Test System: AMES SALMONELLA TYPHIMURIUM, Strain/Indicator: TA100, Metabolic Activation: NONE) “inactive; negative”; under setting [2], “inactive; negative”. Also, the mutagenic call reads like this: (Test System: AMES SALMONELLA TYPHIMURIUM, Strain/Indicator: TA100, Metabolic Activation: RAT, LIVER, S-9, AROCLOR 1254) “inactive; negative”; (Test System: AMES SALMONELLA TYPHIMURIUM, Strain/Indicator: TA100, Metabolic Activation: RAT, LIVER, S-9, AROCLOR 1254, Method: STANDARD PLATE) “inactive; negative”; (Test System: AMES SALMONELLA TYPHIMURIUM, Strain/Indicator: TA1535, Metabolic Activation: NONE) “inactive; negative”; (Test System: AMES SALMONELLA TYPHIMURIUM, Strain/Indicator: TA1535, Metabolic Activation: RAT, LIVER, S-9, AROCLOR 1254) “inactive; negative”; (Test System: AMES SALMONELLA TYPHIMURIUM, Strain/Indicator: TA1537, Metabolic Activation: NONE) “inactive; negative”; (Test System: AMES SALMONELLA TYPHIMURIUM, Strain/Indicator: TA1537, Metabolic Activation: RAT, LIVER, S-9, AROCLOR 1254) “inactive; negative”. Moreover, the mutagenic call is “inactive; negative” (Test System: CHINESE HAMSTER V-79, Strain/Indicator: V-79/6-THIOGUANINE, Metabolic Activation: NONE, Method: REPLATING); “inactive; negative” (Test System: CHINESE HAMSTER V-79, Strain/Indicator: V-79/6-THIOGUANINE, Metabolic Activation: RAT, HEPATOCYTES, Method: REPLATING); “inactive; negative” (Test System: UDS HUMAN HEPATOCYTES, Strain/Indicator: THY INCORP, Metabolic Activation: NONE, Method: AUTORADIOGRAPHY); “inactive; negative” (Test System: UDS RAT HEPATOCYTES, Strain/Indicator: THY INCORP, Metabolic Activation: NONE, Method: AUTORADIOGRAPHY).

The record behind these values is PubChem BioAssay AID1259407 (Chemical Carcinogenesis Research Information System (CCRIS), 2018).
